Read-outs that look alike come from different tables or passages of the source.
Experiments:
[1] = target: wt RmlA (glucose-1-phosphate thymidylyltransferase) (Salmonella typhimurium, UniProt P26393)
Protocol: (§1) Enzymatic Reactions—The enzyme assay was accomplished via slight modification of previously reported methods (Jiang et al. (2000) J. Am. Chem. Soc. 122, 6803-6804; Jiang et al. (2001) Angew. Chem., Int. Ed. 40, 1502-1505; Jiang et al. (2003) Chem Bio Chem 4, 443-446; Barton et al. (2002) Proc. Natl. Acad. Sci. U.S.A. 99, 13397-13402). In a typical reaction, sugar-1-phosphate (10 mM final) and enzyme (0.01-50 μM) were mixed with NTP (0.01-40 mM) in the presence of MgCl2 ([NTP]+5 mM) and 10 U/mL inorganic pyrophosphatase (Sigma, St. Louis, Mo., USA) in 100 mM Tris HCl, pH 8.0 (20 μL final volume). Typical reactions were analyzed after 10 min at 37° C. and reaction times were extended for some slow reacting sugar/NTP combinations. Reactions were stopped by the addition of 80 μL prewarmed HPLC buffer and heat inactivation (95° C., 5 min). The amount of enzyme used and the incubation time was adjusted so that the reactions never proceeded to more than 10% turnover for kinetics, or 30% for activity assays.
(§2) Product Characterization—Reactions were analyzed via analytical HPLC (Supelcosil LC18-T; Supelco, Bellefonte, Pa.; 5 μm, 250×3 mm, 40 mM phosphoric acid, pH 6.5 with triethylamine, with a gradient of 0-10% MeOH over 20 min, 0.8 mL/min, A254). Due to earlier elution, a 5 min 0% MeOH isocratic hold was performed prior to starting the gradient for CTP-containing reactions.
(§3) Kinetic Measurements—Pseudo first order kinetics were obtained by fixing glucose-1-phosphate at a saturating concentration of 10 mM (Barton et al. (2001) Nat Struct Biol 8, 545-551), and titrating NTPs. At least eight different concentrations in the range of ¼×KM to 4×KM (0.09-20 mM for dTTP, 0.2-40 mM for others) were assayed in triplicate. […] Activities were corrected for time and enzyme concentrations, and the kinetic curves were fit to the Michaelis-Menton equation using SigmaPlot with the Enzyme Kinetics module (SPSS, Chicago, Ill., USA).

[2] = target: T1, RmlA Q83S (Salmonella typhimurium, UniProt P26393, Q83S); assay: Pseudo first order kinetics of RmlA Q83S mutant; assay type: biochemical, Salmonella enterica typhimurium LT2; conditions: 10 mM glucose-1-phosphate, 0.05-25 μM enzyme, [NTP] + 5 mM MgCl2, 100 mM Tris-HCl pH 8.0, 37° C.; for Km: read-out: KM^app
T1 construct: His6 (pET28a) (N); made in house; host or cells: Escherichia coli BL21 (DE3)
T1 sequence (P26393 whole entry Q83S): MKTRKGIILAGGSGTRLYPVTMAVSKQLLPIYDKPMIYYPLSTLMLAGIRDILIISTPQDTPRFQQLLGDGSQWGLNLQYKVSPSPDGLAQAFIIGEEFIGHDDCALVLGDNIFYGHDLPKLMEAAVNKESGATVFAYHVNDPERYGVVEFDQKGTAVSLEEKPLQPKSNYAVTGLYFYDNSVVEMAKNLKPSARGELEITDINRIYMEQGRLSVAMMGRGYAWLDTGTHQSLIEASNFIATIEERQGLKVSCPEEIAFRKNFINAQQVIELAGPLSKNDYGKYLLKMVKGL
Text: (§4) Driven by these mutant plasmids, the corresponding RmlA variants were subsequently expressed and purified as described above.
as §1, §2, §3

[3] = target: T2, RmlA Q83E (Salmonella typhimurium, UniProt P26393, Q83E); assay: Relative activity of RmlA mutant Q83E with alternative NTPs; assay type: biochemical, Salmonella enterica typhimurium LT2; conditions: 10 mM Glucose-1-phosphate, 0.1-10 μM enzyme, 5 mM NTP, 10 mM MgCl2, pH 8.0, 37° C.
T2 construct: His6 (pET28a) (N); made in house; host or cells: Escherichia coli BL21 (DE3)
T2 sequence (P26393 whole entry Q83E): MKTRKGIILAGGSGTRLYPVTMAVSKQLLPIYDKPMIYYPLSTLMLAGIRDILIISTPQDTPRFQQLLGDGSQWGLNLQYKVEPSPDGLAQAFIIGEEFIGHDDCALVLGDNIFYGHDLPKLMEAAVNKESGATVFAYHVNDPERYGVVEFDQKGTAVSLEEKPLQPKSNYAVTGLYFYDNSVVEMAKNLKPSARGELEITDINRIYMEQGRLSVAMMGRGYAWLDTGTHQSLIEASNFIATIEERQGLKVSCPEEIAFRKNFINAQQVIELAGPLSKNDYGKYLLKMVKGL
Text: (§5) RmlA mutagenesis—RmlA mutants were generated with the Quikchange mutagenesis kit (Stratagene, La Jolla, Calif., USA) using the wt RmlA-pET28a parent expression plasmid as the template and the primers indicated in Table 1. Individual progeny plasmids were confirmed by DNA sequencing to carry the desired mutations. Driven by these mutant plasmids, the corresponding RmlA variants were subsequently expressed and purified as described above.
as §1
as §2, with “reactions. For nucleotide sugar products with commercially available standards, HPLC peak identity was confirmed by co-elution.” for “reactions.”

[4] = target: T3, RmlA Q83A (Salmonella typhimurium, UniProt P26393, Q83A); assay: Relative activity of RmlA mutant Q83A with alternative NTPs; assay type: biochemical, Salmonella enterica typhimurium LT2; conditions: 10 mM Glucose-1-phosphate, 0.1-10 μM enzyme, 5 mM NTP, 10 mM MgCl2, pH 8.0, 37° C.
T3 construct: His6 (pET28a) (N); made in house; host or cells: Escherichia coli BL21 (DE3)
T3 sequence (P26393 whole entry Q83A): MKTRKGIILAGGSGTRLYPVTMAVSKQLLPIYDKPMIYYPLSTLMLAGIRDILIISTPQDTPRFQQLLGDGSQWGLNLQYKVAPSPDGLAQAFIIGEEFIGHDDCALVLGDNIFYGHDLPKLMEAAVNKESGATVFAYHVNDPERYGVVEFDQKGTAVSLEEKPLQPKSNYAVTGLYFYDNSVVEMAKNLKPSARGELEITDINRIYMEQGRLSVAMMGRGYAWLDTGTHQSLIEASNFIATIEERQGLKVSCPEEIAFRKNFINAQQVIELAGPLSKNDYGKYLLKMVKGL
Text: as §5, §1
as §2, with “reactions. For nucleotide sugar products with commercially available standards, HPLC peak identity was confirmed by co-elution.” for “reactions.”

[5] = target: T1, RmlA Q83S; assay: Relative activity of RmlA mutant Q83S with alternative NTPs; assay type: biochemical, Salmonella enterica typhimurium LT2; conditions: 10 mM Glucose-1-phosphate, 0.1-10 μM enzyme, 5 mM NTP, 10 mM MgCl2, pH 8.0, 37° C.
Text: as §5, §1
as §2, with “reactions. For nucleotide sugar products with commercially available standards, HPLC peak identity was confirmed by co-elution.” for “reactions.”

[6] = target: T4, RmlA Q83D (Salmonella typhimurium, UniProt P26393, Q83D); assay: Relative activity of RmlA mutant Q83D with alternative NTPs; assay type: biochemical, Salmonella enterica typhimurium LT2; conditions: 10 mM Glucose-1-phosphate, 0.1-10 μM enzyme, 5 mM NTP, 10 mM MgCl2, pH 8.0, 37° C.
T4 construct: using BSA as a standard, and a molecular mass of 34.6 kDa; His6 (pET28a) (N); made in house; host or cells: Escherichia coli BL21 (DE3)
T4 sequence (P26393 whole entry Q83D): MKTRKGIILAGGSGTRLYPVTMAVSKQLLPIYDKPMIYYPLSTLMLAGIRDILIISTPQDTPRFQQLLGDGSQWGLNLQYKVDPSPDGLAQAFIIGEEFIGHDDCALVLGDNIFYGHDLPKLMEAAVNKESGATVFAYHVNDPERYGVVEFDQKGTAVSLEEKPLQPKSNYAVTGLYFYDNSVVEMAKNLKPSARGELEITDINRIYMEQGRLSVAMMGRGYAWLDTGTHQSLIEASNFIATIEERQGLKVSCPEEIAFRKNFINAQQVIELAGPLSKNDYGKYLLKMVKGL
Text: as §5, §1
as §2, with “reactions. For nucleotide sugar products with commercially available standards, HPLC peak identity was confirmed by co-elution.” for “reactions.”

[7] = target: T5, RmlA Q83N (Salmonella typhimurium, UniProt P26393, Q83N); assay: Relative activity of RmlA mutant Q83N with alternative NTPs; assay type: biochemical, Salmonella enterica typhimurium LT2; conditions: 10 mM Glucose-1-phosphate, 0.1-10 μM enzyme, 5 mM NTP, 10 mM MgCl2, pH 8.0, 37° C.
T5 construct: His6 (pET28a) (N); made in house; host or cells: Escherichia coli BL21 (DE3)
T5 sequence (P26393 whole entry Q83N): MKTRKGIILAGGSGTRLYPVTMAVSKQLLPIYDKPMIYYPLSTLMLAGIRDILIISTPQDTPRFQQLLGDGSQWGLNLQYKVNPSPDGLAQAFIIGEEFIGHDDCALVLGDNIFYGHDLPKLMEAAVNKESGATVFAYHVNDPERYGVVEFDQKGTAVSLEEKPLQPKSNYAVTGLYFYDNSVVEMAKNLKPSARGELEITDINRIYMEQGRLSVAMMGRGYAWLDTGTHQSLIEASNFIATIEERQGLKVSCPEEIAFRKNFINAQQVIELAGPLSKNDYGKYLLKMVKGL
Text: as §5, §1
as §2, with “reactions. For nucleotide sugar products with commercially available standards, HPLC peak identity was confirmed by co-elution.” for “reactions.”

[8] = test system: UDP-sugar pyrophosphorylase (Usp); conditions: Thermus caldophilus Usp, literature; cited from earlier work
[9] = target: ST0452 (Sulfurisphaera tokodaii, UniProt Q975F9); conditions: Sulfolobus tokodaii ST0452, literature; cited from earlier work
Sequence of ST0452 (Q975F9 whole entry): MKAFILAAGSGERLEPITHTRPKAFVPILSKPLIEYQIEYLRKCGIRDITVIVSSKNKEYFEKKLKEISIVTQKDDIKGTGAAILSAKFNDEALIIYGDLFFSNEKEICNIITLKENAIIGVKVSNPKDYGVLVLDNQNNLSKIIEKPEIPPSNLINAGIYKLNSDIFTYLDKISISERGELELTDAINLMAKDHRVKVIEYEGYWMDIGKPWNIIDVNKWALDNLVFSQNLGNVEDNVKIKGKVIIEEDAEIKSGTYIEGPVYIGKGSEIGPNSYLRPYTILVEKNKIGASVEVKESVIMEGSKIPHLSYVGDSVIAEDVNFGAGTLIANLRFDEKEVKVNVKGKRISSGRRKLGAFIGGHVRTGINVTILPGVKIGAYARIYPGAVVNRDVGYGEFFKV

[10] = target: T4, RmlA Q83D; assay: Pseudo first order kinetics of RmlA Q83D mutant; assay type: biochemical, Salmonella enterica typhimurium LT2; conditions: for kcat^app / Km: 10 mM glucose-1-phosphate, 0.05-25 μM enzyme, [NTP] + 5 mM MgCl2, 100 mM Tris-HCl pH 8.0, 37° C.; for Km: read-out: KM^app
Text: as §4, §1, §2, §3

Sequence of wt RmlA (glucose-1-phosphate thymidylyltransferase) (P26393 whole entry): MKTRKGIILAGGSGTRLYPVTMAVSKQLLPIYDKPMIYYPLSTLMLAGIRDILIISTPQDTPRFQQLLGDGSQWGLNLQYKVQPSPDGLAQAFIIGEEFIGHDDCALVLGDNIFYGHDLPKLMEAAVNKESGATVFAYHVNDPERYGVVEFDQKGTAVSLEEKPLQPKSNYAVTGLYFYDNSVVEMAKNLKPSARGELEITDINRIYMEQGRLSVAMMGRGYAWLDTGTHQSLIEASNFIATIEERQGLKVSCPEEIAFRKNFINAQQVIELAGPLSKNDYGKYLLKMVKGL

| SMILES | reduction in the apparent RmlA specificity constant (kcat/KM) versus dTTP [1] | kcat^app [2] [s⁻¹] | Km [2] [µM] | Relative activity of Q83E as compared to wt RmlA [3] | Relative activity of Q83A as compared to wt RmlA [4] | Relative activity of Q83S as compared to wt RmlA [5] | Relative activity of Q83D as compared to wt RmlA [6] | Relative activity of Q83N as compared to wt RmlA [7] | turnover of glucose-1-phosphate with NTP by Usp [8] | utilization of NTP by ST0452 [9] | improvement in apparent KM, Q83D versus wild-type [10] [fold] | kcat^app [10] [s⁻¹] | Km [10] [µM] | reduction in the apparent RmlA specificity constant (kcat/KM) versus dTTP ([1]; wild-type RmlA, glucose-1-phosphate) [fold] | kcat^app ([1]; Wild-type RmlA, 10 mM glucose-1-phosphate, 0.05-25 μM enzyme, [NTP] + 5 mM MgCl2, 100 mM Tris-HCl pH 8.0, 37° C.) [s⁻¹] | Km ([1]; read-out: KM^app, Wild-type RmlA, 10 mM glucose-1-phosphate, 0.05-25 μM enzyme, [NTP] + 5 mM MgCl2, 100 mM Tris-HCl pH 8.0, 37° C.) [µM] | increase in KM, Q83D versus wild-type [10] [fold] |
| --- | --- | --- | --- | --- | --- | --- | --- | --- | --- | --- | --- | --- | --- | --- | --- | --- | --- |
| Nc1ncnc2c1ncn2[C@@H]1O[C@H](COP(=O)(O)OP(=O)(O)OP(=O)(O)O)[C@@H](O)[C@H]1O [ATP, adenosine-5′-triphosphate] | > 15,000 fold | 0.48 ± 0.0233 | 3400 ± 600 | 0.7 | 7.9 | 14.0 | 0.6 | 6.5 | turn over | could not utilize | – | – | – | – | – | – | – |
| Nc1ccn([C@@H]2O[C@H](COP(=O)(O)OP(=O)(O)OP(=O)(O)O)[C@@H](O)[C@H]2O)c(=O)n1 [CTP, cytidine-5′-triphosphate] | – | – | – | 0.8 | 1.3 | 1.5 | 0.2 | 0.7 | turn over | could not utilize | – | – | – | – | – | – | – |
| Nc1nc2c(ncn2[C@@H]2O[C@H](COP(=O)(O)OP(=O)(O)OP(=O)(O)O)[C@@H](O)[C@H]2O)c(=O)[nH]1 [GTP, guanosine-5′-triphosphate] | – | – | – | 2.8 | 0.7 | 2.2 | 3.7 | 0.2 | turn over | could not utilize | 6.5 | 0.213 ± 0.015 | 1300 ± 400 | – | – | – | – |
| O=c1ccn([C@@H]2O[C@H](COP(=O)(O)OP(=O)(O)OP(=O)(O)O)[C@@H](O)[C@H]2O)c(=O)[nH]1 [UTP, uridine-5′-triphosphate] | – | – | – | 1.3 | 0.2 | 0.2 | 0.2 | 0.2 | turn over | good activity | – | – | – | ~12 | – | – | – |
| Nc1ncnc2c1ncn2[C@H]1C[C@H](O)[C@@H](COP(=O)(O)OP(=O)(O)OP(=O)(O)O)O1 [dATP, 2′-deoxyadenosine-5′-triphosphate] | – | 5.33 ± 0.333 | 1100 ± 300 | 0.4 | 4.6 | 7.9 | 0.8 | 3.8 | – | good activity | – | – | – | – | – | – | – |
| Nc1ccn([C@H]2C[C@H](O)[C@@H](COP(=O)(O)OP(=O)(O)OP(=O)(O)O)O2)c(=O)n1 [dCTP, 2′-deoxycytidine-5′-triphosphate] | – | – | – | 1.1 | 0.8 | 1.4 | 1.2 | – | – | good activity | – | – | – | – | – | – | – |
| Nc1nc2c(ncn2[C@H]2C[C@H](O)[C@@H](COP(=O)(O)OP(=O)(O)OP(=O)(O)O)O2)c(=O)[nH]1 [dGTP, 2′-deoxyguanosine-5′-triphosphate] | – | – | – | 1.7 | 0.2 | 0.6 | 1.6 | 0.1 | – | good activity | – | 5 ± 0.333 | 11500 ± 1800 | – | – | – | – |
| Cc1cn([C@H]2C[C@H](O)[C@@H](COP(=O)(O)OP(=O)(O)OP(=O)(O)O)O2)c(=O)[nH]c1=O [dTTP, 2′deoxythymidine-5′-triphosphate] | – | 6.33 ± 0.5 | 2400 ± 600 | 1.0 | 0.2 | 0.3 | 0.2 | 0.3 | turn over | good activity | – | 3.62 ± 0.233 | 6200 ± 1200 | – | 30.83 ± 0.667 | 290 ± 40 | 21 |
